{"source": "the supplement of paper PMC10307832", "assay_in_all_cases": "relative viability (nuclei count vs DMSO), 5 days (fraction); higher = more cells survive", "key": {"NPK76-II-72-1": {"compound": "CC1CC(=O)N(C2=CN=C(N=C2N1C3CCCC3)NC4=C(C=C(C=C4)C(=O)NC5CCN(CC5)C)OC)C [NPK76-II-72-1]", "how_it_was_run": "(§1)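 Following overnight incubation at 37 °C, lung cancer cell lines in 1536-well plates were pinned with five library-drug doses (not always all listed) in √10 steps on vehicle-anchored plates. The cells then spent 5 days without medium change before a combined fix, permeabilisation and Hoechst stain, 4× imaging and MetaXpress nuclear counts. Viability is the treated-to-vehicle ratio of nuclei, taken as the median across plates. Only plates with control CV below 25% and at least one doubling passed.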"}, "BI-2536": {"compound": "CC[C@@H]1C(=O)N(C)c2cnc(Nc3ccc(C(=O)NC4CCN(C)CC4)cc3OC)nc2N1C1CCCC1 [BI-2536]", "how_it_was_run": "as §1"}, "[1]": {"compound": "CC1CC(=O)N(C2=CN=C(N=C2N1C3CCCC3)NC4=C(C=C(C=C4)C(=O)NC5CCN(CC5)C)OC)C [NPK76-II-72-1] + CS(=O)(=O)CCNCc1ccc(-c2ccc3ncnc(Nc4ccc(OCc5cccc(F)c5)c(Cl)c4)c3c2)o1 [Lapatinib] (partner 2 µM)", "how_it_was_run": "(§2)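 A single step with final 0.05% Triton X-100, 1% formaldehyde and 1 ug/ml Hoechst fixed the cells and stained nuclei 5 days after treatment. Lung cancer cell lines in 1536-well plates had been treated by pin tool the day after seeding with one drug alone or a fixed anchor-drug dose plus five library-drug doses (not always all listed) in √10 steps, and nuclei were counted on 4× images. Relative viability is the ratio of nuclei in treated wells to nuclei in vehicle wells, taken as the median of duplicate plates.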"}, "[2]": {"compound": "CC1CC(=O)N(C2=CN=C(N=C2N1C3CCCC3)NC4=C(C=C(C=C4)C(=O)NC5CCN(CC5)C)OC)C [NPK76-II-72-1] + COc1cc2c(Oc3ccc(NC(=O)C4(C(=O)Nc5ccc(F)cc5)CC4)cc3F)ccnc2cc1OCCCN1CCOCC1 [Foretinib] (partner 0.25 µM)", "how_it_was_run": "as §2"}}}
{"cell line": "UMC-11", "values": [{"measurement": "relative viability", "setting": "NPK76-II-72-1; 0.01 µM", "result": 0.93}, {"measurement": "relative viability", "setting": "NPK76-II-72-1; 0.03162 µM", "result": 0.95}, {"measurement": "relative viability", "setting": "NPK76-II-72-1; 0.1 µM", "result": 1.01}, {"measurement": "relative viability", "setting": "NPK76-II-72-1; 0.3162 µM", "result": 0.909}, {"measurement": "relative viability", "setting": "NPK76-II-72-1; 1 µM", "result": 0.931}, {"measurement": "relative viability", "setting": "BI-2536; 0.01 µM", "result": 0.923}, {"measurement": "relative viability", "setting": "BI-2536; 0.03162 µM", "result": 0.624}, {"measurement": "relative viability", "setting": "BI-2536; 0.1 µM", "result": 0.175}, {"measurement": "relative viability", "setting": "BI-2536; 0.3162 µM", "result": 0.205}, {"measurement": "relative viability", "setting": "BI-2536; 1 µM", "result": 0.2}, {"measurement": "relative viability", "setting": "[1]; first compound 0.01 µM", "result": 0.923}, {"measurement": "relative viability", "setting": "[1]; first compound 0.03162 µM", "result": 1.07}, {"measurement": "relative viability", "setting": "[1]; first compound 0.1 µM", "result": 1.08}, {"measurement": "relative viability", "setting": "[1]; first compound 0.3162 µM", "result": 0.782}, {"measurement": "relative viability", "setting": "[1]; first compound 1 µM", "result": 1.05}, {"measurement": "relative viability", "setting": "[2]; first compound 0.01 µM", "result": 0.988}, {"measurement": "relative viability", "setting": "[2]; first compound 0.03162 µM", "result": 1.06}, {"measurement": "relative viability", "setting": "[2]; first compound 0.1 µM", "result": 1.06}, {"measurement": "relative viability", "setting": "[2]; first compound 1 µM", "result": 0.95}]}
